In patent publication US20200179327A1, “USE OF PHENOLIC COMPOUNDS FROM OLEA EUROPAEA” (McCord Research, Inc., priority 2017, published 2020):

What was measured:
[1] = system: peripheral blood mononuclear cells (PBMC); assay: Cell viability/proliferation, Cell-Titer Blue, PBMC; assay type: cell-based, human; conditions: 0-800 μM, 24, 48 or 72 hours
Experimental: (§1) Human peripheral blood mononuclear cells (PBMCs) were fractionated using the Ficoll Plaque fractionation method from whole blood obtained from the Australian Red Cross Blood Bank (ARCB) under ethic approval (#304/12). Cells were harvested fresh on the day of the experiments and maintained in complete-RPMI-1640 medium supplemented with 10% FBS, 2 mM L-glutamine and 20 μg/mL gentamicin at 37° C., 5% (v/v) CO2. Human aortic endothelial cells (HAECs, ATCC) and the equivalent cells taken for patients with Type II diabetes (DII-HAECs, ATCC) were cultured in endothelial cell growth medium (ECM) supplemented with 100 U/ml penicillin, 100 μg/ml streptomycin, 0.25 μg/ml fungizone, 2 mM L-glutamine, 5 U/ml heparin, 30-50 μg/ml endothelial cell growth supplement (Technoclone, Vienna, Austria). All cells were passaged by typsination and seeded into 6 well culture dishes at cell densities of 1×10^6 cells per well; at 37° C., 5% (v/v) CO2. […] Cell viability was measured using the Cell-Titer Blue® Assay kit (Promega, Madison, Wis., USA) according to the manufacturer's instructions. Cell-Titer Blue reagent was added to each well and incubated for 4 hours at 37° C., 5% CO2, before reading fluorescence intensity (550 nm excitation; 615 nm emission) using the CLARIOstar (BMG LABTECH, Offenburg, Germany) microplate reader. […]

[2] = system: primary skin fibroblasts (BJ); assay: Cell viability/proliferation, Cell-Titer Blue, BJ; assay type: cell-based, human; conditions: 0-800 μM, 24, 48 or 72 hours
[3] = system: primary human aortic endothelial cells from a healthy patient (h-HAEC); assay: Cell viability/proliferation, Cell-Titer Blue, h-HAEC; assay type: cell-based; conditions: 0-800 μM, 24, 48 or 72 hours
Experimental: as §1

[4] = system: human aortic endothelial cells from patient with Type II diabetes (DII-HAEC); assay: Cell viability/proliferation, Cell-Titer Blue, DII-HAEC; assay type: cell-based; conditions: 0-800 μM, 24, 48 or 72 hours
Experimental: as §1

[5] = target: T1, lysine-specific demethylase 1 (LSD1) (Homo sapiens, UniProt O60341); assay: EpiQuik Histone Demethylase LSD1 inhibitor screening assay; assay type: biochemical; conditions: 10-dose, 2-fold dilution from 200 μM; read-out: LSD1 enzyme activity inhibition IC50
T1 construct: purchased EpiGentek

COX-1 [6] = target: T2, COX-1 (Ovis aries, UniProt P05979); assay: COX-1/2 inhibitor screening kit (BioVision), COX-1; assay type: biochemical; conditions: 10-dose, 2-fold dilution from 1000 μM; read-out: COX-1 inhibition IC50
T2 construct: purchased BioVision
T2 sequence (P05979 25-600): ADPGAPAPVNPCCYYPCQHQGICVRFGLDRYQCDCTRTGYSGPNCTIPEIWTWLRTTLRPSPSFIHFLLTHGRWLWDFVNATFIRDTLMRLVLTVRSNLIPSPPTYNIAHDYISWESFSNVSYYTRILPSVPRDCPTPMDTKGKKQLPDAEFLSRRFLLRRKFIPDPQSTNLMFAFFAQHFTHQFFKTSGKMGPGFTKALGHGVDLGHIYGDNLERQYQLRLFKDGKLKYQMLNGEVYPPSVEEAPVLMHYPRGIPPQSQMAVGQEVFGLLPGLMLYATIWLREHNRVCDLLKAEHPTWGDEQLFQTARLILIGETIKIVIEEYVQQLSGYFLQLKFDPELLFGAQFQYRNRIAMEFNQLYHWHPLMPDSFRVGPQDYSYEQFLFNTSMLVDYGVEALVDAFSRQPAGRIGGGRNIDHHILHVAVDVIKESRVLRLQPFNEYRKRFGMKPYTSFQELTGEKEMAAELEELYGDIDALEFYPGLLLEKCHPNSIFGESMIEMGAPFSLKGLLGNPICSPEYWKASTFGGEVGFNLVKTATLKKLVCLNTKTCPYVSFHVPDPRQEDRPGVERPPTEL
Experimental: (§2) Inhibition of individual COX-1 and COX-2 enzymes by MMBHTE and oleocanthal was measured using the COX-1/2 inhibitor screening kit (BioVision, Milpatas, Calif., USA), according to the manufacturer's instructions. […] The production of prostaglandin G2, the intermediate product generated by the COX enzyme in the presence of arachidonic acid is measured by coupling with HRP and COX substrate and fluorescence was measured using the CLARIOstar microplate reader at Ex/Em=535/587 nm. Data is represented at the percentage of COX enzymatic activity inhibition relative to the log of the compound and a curve fit for the control compound. Corresponding IC50 values were calculated.
(§3) FIG. 6A and FIG. 6B show the inhibition activities of MMBHTE and Oleocanthal on COX-1 and COX-2, respectively. The data shown in FIG. 6A and FIG. 6B indicates all the test samples fell within the detectable range. The data shown in FIG. 6A and FIG. 6B is represented as the percentage of COX enzymatic activity inhibition relative to the log of the concentrations and best-fit curves for MMBHTE and Oleocanthal. Corresponding IC50 values were calculated. […] Therefore, MMBHTE is a […] COX-1 and COX-2 inhibitor.

COX-2 [7] = target: T3, COX-2 (Homo sapiens, UniProt P35354); assay: COX-1/2 inhibitor screening kit (BioVision), COX-2; assay type: biochemical; conditions: 10-dose, 2-fold dilution from 1000 μM; read-out: COX-2 inhibition IC50
T3 construct: purchased BioVision
T3 sequence (P35354 18-604): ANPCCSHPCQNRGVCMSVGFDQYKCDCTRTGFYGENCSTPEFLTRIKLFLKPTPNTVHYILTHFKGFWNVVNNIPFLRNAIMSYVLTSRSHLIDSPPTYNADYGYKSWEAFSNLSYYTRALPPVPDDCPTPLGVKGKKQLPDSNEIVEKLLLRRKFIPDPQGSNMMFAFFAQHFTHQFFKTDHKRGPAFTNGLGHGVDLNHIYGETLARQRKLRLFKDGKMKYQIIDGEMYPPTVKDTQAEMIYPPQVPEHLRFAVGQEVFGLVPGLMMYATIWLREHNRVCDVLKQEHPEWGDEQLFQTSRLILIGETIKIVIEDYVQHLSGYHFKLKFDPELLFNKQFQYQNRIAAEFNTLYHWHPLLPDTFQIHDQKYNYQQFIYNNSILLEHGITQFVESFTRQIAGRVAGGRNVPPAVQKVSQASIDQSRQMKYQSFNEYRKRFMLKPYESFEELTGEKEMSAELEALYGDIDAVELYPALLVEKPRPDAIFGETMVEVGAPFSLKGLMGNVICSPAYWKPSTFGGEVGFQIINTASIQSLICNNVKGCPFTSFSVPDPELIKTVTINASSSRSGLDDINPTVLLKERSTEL
Experimental: as §2, §3

[8] = target: T4, monoamine oxidase A (MAO-A) (Homo sapiens, UniProt P21397); assay: Monoamine Oxidase A (MAO-A) Inhibitor Screening Kit; assay type: biochemical; conditions: 10-dose, 2-fold dilution from 100 μM; substrate tyramine; read-out: MAO-A inhibition IC50
T4 construct: purchased Sigma-Aldrich
T4 sequence (P21397 1-527): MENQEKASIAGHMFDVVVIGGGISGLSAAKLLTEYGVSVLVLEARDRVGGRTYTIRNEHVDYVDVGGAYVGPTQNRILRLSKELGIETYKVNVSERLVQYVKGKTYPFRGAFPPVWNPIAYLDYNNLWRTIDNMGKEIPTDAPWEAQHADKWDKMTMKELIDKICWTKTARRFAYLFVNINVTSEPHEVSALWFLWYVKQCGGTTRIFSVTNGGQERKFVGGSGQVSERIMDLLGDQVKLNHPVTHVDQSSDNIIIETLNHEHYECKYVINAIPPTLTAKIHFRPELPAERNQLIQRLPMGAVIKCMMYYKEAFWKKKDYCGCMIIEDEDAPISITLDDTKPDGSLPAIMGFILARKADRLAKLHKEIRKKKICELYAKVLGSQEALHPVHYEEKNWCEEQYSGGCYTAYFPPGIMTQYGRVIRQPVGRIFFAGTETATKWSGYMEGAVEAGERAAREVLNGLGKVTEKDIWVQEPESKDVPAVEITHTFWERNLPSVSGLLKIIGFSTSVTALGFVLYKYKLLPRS
Experimental: The production of H2O2 generated by the oxidative deamination of the MAO substrate tyramine was measured fluorometrically using the CLARIOstar microplate reader at Ex/Em=535/587 nm. Data is represented as the percentage of MAO enzymatic activity inhibition relative to the log of the compound and a curve fit for the control compound. Corresponding IC50 values were calculated.

COX-1 [9] = target: COX-1 (Homo sapiens, UniProt P23219); conditions: in vitro; cited from earlier work
COX-1 (Homo sapiens, UniProt P23219), sequence (P23219 24-599): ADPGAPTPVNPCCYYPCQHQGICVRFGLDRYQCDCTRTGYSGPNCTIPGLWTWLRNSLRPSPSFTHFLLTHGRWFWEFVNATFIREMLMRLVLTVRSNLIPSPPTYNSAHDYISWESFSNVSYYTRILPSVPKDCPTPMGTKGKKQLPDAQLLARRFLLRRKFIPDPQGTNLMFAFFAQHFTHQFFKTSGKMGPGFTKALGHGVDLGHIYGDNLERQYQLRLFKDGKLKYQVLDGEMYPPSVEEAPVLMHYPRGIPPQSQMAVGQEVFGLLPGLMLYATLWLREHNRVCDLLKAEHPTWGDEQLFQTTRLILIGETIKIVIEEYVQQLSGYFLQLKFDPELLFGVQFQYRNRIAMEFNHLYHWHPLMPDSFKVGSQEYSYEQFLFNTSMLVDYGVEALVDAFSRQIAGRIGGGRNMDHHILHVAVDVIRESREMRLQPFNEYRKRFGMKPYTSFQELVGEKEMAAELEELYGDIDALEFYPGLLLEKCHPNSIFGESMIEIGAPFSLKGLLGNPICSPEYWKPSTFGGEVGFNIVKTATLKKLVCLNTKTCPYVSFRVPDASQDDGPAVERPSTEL

COX-2 [10] = target: T3, COX-2; conditions: in vitro; cited from earlier work
lipoxygenase = conditions: in vitro; cited from earlier work

SMILES | toxicity profile (cell viability) [1] | toxicity profile (cell viability) [2] | toxicity profile (cell viability) [3] | toxicity profile (cell viability) [4] | IC50 [5] [nM] | IC50 (COX-1 [6]) [nM] | IC50 (COX-2 [7]) [nM] | IC50 [8] [nM] | inhibition of COX-1 (COX-1 [9]) | inhibition of COX-2 (COX-2 [10]) | effect on lipoxygenase (lipoxygenase)
COC(=O)[C@H](O)CC(=O)OCCc1ccc(O)c(O)c1 (stereo in doubt) [MMBHTE, methyl malate-β-hydroxytyrosol ester] | very favorable toxicity profile | very favorable toxicity profile | very favorable toxicity profile | very favorable toxicity profile | 11.9 | 1720 ± 90 | 81600 ± 7700 | 443 ± 158 | – | – | –
C/C=C(/C=O)[C@@H](CC=O)CC(=O)OCCc1ccc(O)cc1 [Oleocanthal] | – | – | – | – | – | 430 ± 50 | 352000 ± 7700 | – | dose-dependent inhibitor | dose-dependent inhibitor | no effect
OCCc1ccc(O)c(O)c1 [HT, hydroxytyrosol, reference compound] | – | – | – | – | 21.8 | – | – | 39100 ± 31500 | – | – | –
